From patent publication US6444684B1 (priority 1993, dated 2002)
Where two headings read alike, the source gives them in different places.

Legend:
L. major = L. major footpad infection in Balb/c mice; type: in vivo; conditions: 80 mg/kg/day intraperitoneally in corn oil for seven days
Description: Compound 1 dissolved in corn oil was administered intraperitoneally to Balb/c mice (Ball State University colony) at 80 mg/kg/day for seven days beginning one day prior to injection of 5×10^6 L. major promastigotes in medium 199 in the hind foot. Control mice received an equivalent amount of corn oil and L. major. Beginning on day 8, the thickness of the footpads top to bottom was measured using a vernier caliper. Footpad swelling indicates progression of the disease. The percent increase in footpad size was calculated as: [formula]
The percent increase in footpad size is for triplicate mice in the control group and duplicate mice in the treated group.

[1] = Solubility in dosing vehicle; type: physicochemical; conditions: 10 percent emulphor 620 in Dulbecco's phosphate buffered saline
Description: CY was dissolved in isotonic saline, 20 and 21 were dissolved in corn oil, and 1 was dissolved in 10 percent emulphor 620 in Dulbecco's phosphate buffered saline. […] Starting 1 day after tumor implantation, drugs were administered interperitoneally (IP) at the doses given in Table X. CY and compounds 20 and 21 were given once daily for 8 days. Compound 1 was administered in three doses per day at lower dose levels, and the animals were treated for 7 days. On day 10, tumor masses, percent inhibition of tumor growth, and weight changes were determined.

[2] = test system: K/1 = ras^K Transformed NRKE Cells
[3] = test system: K/1-NRKE tumor (ras^K-transformed NRKE cells)
[4] = test system: K/1 = ras^K Transformed NRKE Cells; experiment: cells; conditions: Rattus norvegicus, read-out: LC50 K/1
[5] = test system: H/1.2 = ras^H Transformed NRKE Cells; experiment: cells; conditions: Rattus norvegicus, read-out: LC50 H/1.2
[6] = test system: 3LL = Lewis Lung Carcinoma Cells; experiment: cells; conditions: Mus musculus
in vitro = conditions: rat, LC50 NRKE
Leukemia cell lines = experiment: NCI in vitro anticancer screen (SRB), leukemia subpanel; conditions: 48 hours exposure; average percent growth over the cell lines
Description: (§1) Compounds chosen for the program are initially tested in an in vitro anticancer screen. A total of fifty-five human tumor cell lines, derived from nine cancer types (lung, colon, melanoma, renal, ovarian, brain, prostate, breast and leukemia), are used in this screen. The tumor cells are inoculated over a series of standard 96-well microtiter plates on day 0. These cells are then preincubated on the microtiter plates for 24 hours. The test compounds are added to the wells in five 10-fold dilutions starting from the highest soluble concentration. Each compound is tested against every cell line in the panel. The compounds are incubated for 48 hours with the tumor cell lines. At the termination of the assay, the cells are fixed in situ, washed, and dried. Sulforhodamine B (SRB), a pink anionic dye that binds to the basic amino acids of trichloroacetic acid-fixed cells, is added. The cells are washed again, and the remaining dye is a function of the adherent cell mass. The bound stain is solubilized and measured spectrophotometrically. The data are entered from automatic reading devices into a computer for subsequent storage and analysis.
(§2) The measured effect of each test compound on the cell lines is calculated according to one or the other of the following two expressions:
(§3) If (Mean ODtest−Mean ODtzero)□0, then PG=100×(Mean ODtest−Mean ODtzero)/(Mean ODctrl−Mean ODtzero);
(§4) If (Mean ODtest−Mean ODtzero)<0, then PG=100×(Mean ODtest−Mean ODtzero)/Meantzero;
(§5) First, a data sheet is provided which lists, for each cell line, the Mean ODtzero, the Mean ODctrl, the Mean ODtest for each of the five concentrations, the calculated PGs for each concentration, and the response parameters G150, TGI, and LC50.
(§6) Third, mean graphs at each of the principal response parameters (GI50, TGI, and LC50) are provided. […] Since the bar scale is logarithmic, a bar two units to the right implies the compound achieved the response parameter (e.g., GI50) for the cell line at a concentration 1/100 the mean concentration required over all cell lines, and thus the cell line is unusually sensitive to that compound. Bars extending to the left correspondingly imply sensitivity less than the mean. Thus, the mean graphs facilitate visual scanning of data for potential patterns of selectivity for particular cell lines or for particular subpanels with respect to a selected response parameter.

Melanoma cell lines = experiment: NCI in vitro anticancer screen (SRB), melanoma subpanel; conditions: 48 hours exposure; average percent growth over the cell lines
Description: as §1, §2, §3, §4, §5, §6

CNS Cancer cell lines = experiment: NCI in vitro anticancer screen (SRB), CNS cancer subpanel; conditions: 48 hours exposure; average percent growth over the cell lines
Description: as §1, §2, §3, §4, §5, §6

Colon Cancer cell lines = experiment: NCI in vitro anticancer screen (SRB), colon cancer subpanel; conditions: 48 hours exposure; average percent growth over the cell lines
Description: as §1, §2, §3, §4

Renal Cancer cell lines = experiment: NCI in vitro anticancer screen (SRB), renal cancer subpanel; conditions: 48 hours exposure; average percent growth over the cell lines
Description: as §1, §2, §3, §4, §5, §6

Breast Cancer cell lines = experiment: NCI in vitro anticancer screen (SRB), breast cancer subpanel; conditions: 48 hours exposure; average percent growth over the cell lines
[7] = test system: Ovarian Cancer cell lines; experiment: NCI in vitro anticancer screen (SRB), ovarian cancer subpanel; conditions: 48 hours exposure; average percent growth over the cell lines
Description: as §1, §2, §3, §4

[8] = test system: Prostate Cancer cell lines; experiment: NCI in vitro anticancer screen (SRB), prostate cancer subpanel; conditions: 48 hours exposure; average percent growth over the cell lines
Description: as §1, §2, §3, §4

[9] = test system: Non-Small Cell Lung Cancer cell lines; experiment: NCI in vitro anticancer screen (SRB), non-small cell lung cancer subpanel; conditions: 48 hours exposure; average percent growth over the cell lines
[10] = test system: H/1.2 = ras^H Transformed NRKE Cells; conditions: H/1.2 = ras^H transformed NRKE cells, compared with normal NRKE cells
[11] = test system: N/4.2-NRKE transformed by the human ras^N gene; conditions: N/4.2 = ras^N transformed NRK cells, compared with normal NRKE cells
[12] = test system: 3LL = Lewis Lung Carcinoma Cells; conditions: 3LL = Lewis lung carcinoma cells, compared with normal NRKE cells
[13] = test system: human tumor cells in hollow fibers; experiment: NCI Hollow Fiber Assay for preliminary in vivo testing; conditions: combined IP+SC score
Description: For these assays, human tumor cells are cultivated in polyvinylidene fluoride (PVDF) hollow fibers, and a sample of each cell line is implanted into each of two physiologic compartments (intraperitoneal and subcutaneous) in mice. Each test mouse receives a total of 6 fibers (3 intraperitoneally and 3 subcutaneously) representing 3 distinct cancer cells lines. Three mice are treated with potential antitumor compounds at each of 2 test doses by the intraperitoneal route using a QD×4 treatment schedule. Vehicle controls consist of 6 mice receiving the compound diluent only. The fiber cultures are collected on the day following the last day of treatment. To assess anticancer effects, viable cell mass is determined for each of the cell lines using a formazan dye (MTT) conversion assay. From this, the % T/C can be calculated using the average optical density of the compound treated samples divided by the average optical density of the vehicle controls. In addition, the net increase in cell mass can be determined for each sample as a sample of fiber cultures are assessed for viable cell mass on the day of implantation into mice. Thus, the cytostatic and cytocidal capacities of the test compound can be assessed.
This represents a total of 4 experiments since each experiment contains 3 cell lines. […]

COC(=O)c1nc(-c2ccc3c(n2)C(=O)C(NC(C)=O)=CC3=O)c2[nH]c3ccccc3c2c1C [Compound 1, 7-N-Acetyllavendamycin Methyl Ester]
adverse effect of administration as measured by weight loss (in words) (L. major): did not. appear to be adversely affected | solubility in vehicle (in words) [1]: poorly soluble | selective toxicity against ras^K oncogene bearing tumor cells as compared to the normal, non-transformed cells ([2]; LC50 NRKE divided by LC50 K/1): 9 fold | CC50 ([2]; rat, 5 days): 100 nM | Number Dead Number Treated ([3]; 10 Mg/Kg/Day IP in three doses per day for 7 days): 0/7 | Number Dead Number Treated ([3]; 30 Mg/Kg/Day IP in three doses per day for 7 days): 0/7 | Number Dead Number Treated ([3]; 100 Mg/Kg/Day IP in three doses per day for 7 days): 0/7 | toxicity in tumor-bearing nude mice (in words) ([3]; mouse, in vivo): little or no toxicity | tumor growth inhibition in vivo (in words) ([3]; summary of Table X): excellent tumor growth inhibition | CC50 ([4]; 120 h): 100 nM | CC50 [4]: 100 nM | CC50 ([5]; 120 h): 700 nM | CC50 [5]: 700 nM | CC50 ([6]; 120 h, read-out: LC50 3LL, Table VII, concentration giving 50% cell kill, 5 days exposure): > 33000 nM | CC50 ([6]; read-out: LC50 3LL, Table VIII): < 33000 nM | CC50 ([6]; read-out: LC50 3LL, second table headed TABLE VIII): > 33000 nM | CC50 at 5 days (in vitro): 900 nM | Activity (Average PG for highest dose tested) Leukemia (Leukemia cell lines): +36.3% | Activity (Average PG for highest dose tested) Melanoma (Melanoma cell lines): +80.3% | Activity (Average PG for highest dose tested) CNS Cancer (CNS Cancer cell lines): +60.2% | Activity (Average PG for highest dose tested) Colon Cancer (Colon Cancer cell lines): +80.0% | Activity (Average PG for highest dose tested) Renal Cancer (Renal Cancer cell lines): +63.0% | Activity (Average PG for highest dose tested) Breast Cancer (Breast Cancer cell lines): +47.9% | Activity (Average PG for highest dose tested) Ovarian Cancer [7]: +70.0% | Activity (Average PG for highest dose tested) Prostate Cancer [8]: +89.5% | Activity (Average PG for highest dose tested) Non-Small Cell Lung Cancer [9]: +42.6%

COC(=O)c1nc(-c2ccc3c(n2)C(=O)C(N)=C(Cl)C3=O)c2[nH]c3ccccc3c2c1C [Compound 58, 6-Chlorolavendamycin methyl ester]
Differential Index K/1 ([2]; K/1 = ras^K transformed NRKE cells, compared with normal NRKE cells): 1.40 | Differential Index H/1.2 [10]: 1.07 | Differential Index N/4.2 [11]: 1.09 | Differential Index 3LL [12]: 0.54 | Total Score [13]: 14 | Activity (Average PG for highest dose tested) Leukemia (Leukemia cell lines): −14.6% | Activity (Average PG for highest dose tested) Melanoma (Melanoma cell lines): −86.1% | Activity (Average PG for highest dose tested) CNS Cancer (CNS Cancer cell lines): −52.2% | Activity (Average PG for highest dose tested) Colon Cancer (Colon Cancer cell lines): −84.9% | Activity (Average PG for highest dose tested) Renal Cancer (Renal Cancer cell lines): −73.7% | Activity (Average PG for highest dose tested) Breast Cancer (Breast Cancer cell lines): −58.7% | Activity (Average PG for highest dose tested) Ovarian Cancer [7]: −39.3% | Activity (Average PG for highest dose tested) Prostate Cancer [8]: −63.0% | Activity (Average PG for highest dose tested) Non-Small Cell Lung Cancer [9]: −69.3%
